Consider three molecules from paper PMC12466602, “Novel Hybrid Peptide DEFB126 (1-39)-TP5 Inhibits LPS-Induced Inflammatory Responses and Oxidative Stress by Neutralizing LPS and Blocking the TLR4/MD2-NFκB Signaling Axis” (Antioxidants, 2025).

Marks after values point to notes of the source that are not given here. Where no end group is shown, it is not given here.

One data set is described as follows: in vitro. As to conditions: rat, plasma.
A further data set has as its system RAW264.7 macrophages. As to the kind of experiment: CCK-8 cell viability assay. Particulars: 24 h; for cell survival rate: RAW264.7, 10 μg/mL peptide, CCK-8, OD450. On the technique in general: Tetrazolium assays rely on reduction of a dye to a coloured formazan, in cell work by metabolically active cells.
The subject of the next data set is LPS-induced sepsis model. Kind of data set: Murine LPS-induced sepsis / liver injury model. It counts as in vivo, C57BL/6 mice. As to conditions: mice. The protocol:
Male C57BL/6 mice (6–8 weeks of age) were purchased from Charles River (Beijing, China). During the experiments, mice were housed in a specific-pathogen-free (SPF) environment with a temperature of 22 ± 1 °C and a relative humidity of 55 ± 10%. All the animal experiments were conducted with the approval of the Animal Care and Use Committee of China Agricultural University.
The mice were randomly divided into five groups of 12: control, LPS (E. coli O111: B4, Sigma-Aldrich, St. Louis, MO, USA), DEFB126 + LPS, TP5 + LPS, and DTP + LPS. The corresponding peptide (10 mg/kg) was injected intraperitoneally during the pretreatment stage. The control group was synchronized with the LPS group by injecting an equal amount of saline.
During the first 7 days of the experiment, each group received the above treatments once a day. On day 7, the LPS model group and the peptide pretreatment groups (DEFB126 + LPS, TP5 + LPS, and DTP + LPS) were injected intraperitoneally with 20 mg/kg of LPS to establish a sepsis model. The control group was injected with an equal volume of saline. Sixteen hours after the LPS injection, the mice were euthanized, and liver tissues and blood samples were collected. The serum was then separated by centrifugation and stored at −80 °C for measurement.
Mouse liver tissues were fixed with 4% paraformaldehyde, embedded in paraffin, and sliced continuously on a rotary slicer (Leica, RM2235, Nußloch, Germany) at a thickness of 5 μm. After dewaxing and rehydration, the tissues were subjected to Hematoxylin-Eosin (H&E) contrast staining. LPS-induced liver injury was evaluated according to a previous study. The liver injury score was graded on a 0- to 3-point scale: 0, no injury; 1, mild injury with cytoplasmic vacuolation; 2, moderate to severe injury consisting of extensive loss of intercellular borders and nuclear pyknosis; and 3, severe necrosis consisting of liver hemorrhage and neutrophil infiltration.
The levels of tumor necrosis factor (TNF)-α, interleukin (IL)-6, and IL-1β in the serum of mice were detected using commercial ELISA kits (eBioscience, San Diego, CA, USA). Commercial reagent kits (Nanjing Jiancheng Bioengineering Institute, Nanjing, China) were used to detect the levels of serum alanine amino transferase (ALT) and aspartate amino transferase (AST).

Data set [1] is described as follows: LPS neutralization, Chromogenic End-point Tachypleus Amebocyte Lysate (CE TAL) assay. The format is biochemical, E. coli. Particulars: LPS 1.0 U/mL, peptide 0 to 128 μg/mL, 15 min at 37 °C, OD540; mean ± SD of 3 independent experiments. Here is the method:
The LPS-neutralizing ability of the peptides was assessed through a quantitative Chromogenic End-point Tachypleus Amebocyte Lysate (CE TAL) assay (Xiamen Bioendo Technology Co., Xiamen, China). LPS (final concentration 1.0 U/mL; E. coli, O55:B5) was incubated with different concentrations of the peptides (final concentration 0 to 128 μg/mL) for 15 min at 37 °C. Then, the mixtures were incubated with TAL assay reagent at 37 °C for 6 min, and the optical density at 540 nm was measured.

Another data set relates to RAW264.7 cells. Kind of data set: ROS generation (DCFH2-DA, fluorescence microscopy and flow cytometry). It counts as cell-based. Particulars: RAW264.7, LPS 100 ng/mL 1 h, then DTP 12 h. The protocol:
RAW264.7 cells (1 × 10^5 cells/mL cell density) were incubated with LPS (100 ng/mL) at 37 °C for 1 h. After that, cells were treated with DTP at 37 °C for 12 h. The cells were then stained with 5 μM DCFH2-DA for 30 min at 37 °C in the dark. The cells were then washed extensively with PBS before analysis by fluorescence microscope and flow cytometry.

For data set [2], the system named is phosphorylation of IKK-β, IκB-α and NF-κB. Kind of data set: Western blot of NF-κB signaling pathway. It counts as cell-based. As to conditions: LPS-stimulated. Here is the method:
Samples were fractionated into cytoplasmic and nuclear components using the NR-PER Nuclear and Cytoplasmic Protein Extraction Kit (Thermo Fisher Scientific Inc., Waltham, MA, USA). Protein levels in each fraction were determined via a bicinchoninic acid (BCA) assay (KeyGEN Biotech, Nanjing, China). Subsequently, protein fractions were separated by 10% SDS-polyacrylamide gel electrophoresis and transferred to methanol-activated PVDF membranes (Bio-Rad, Hercules, CA, USA). After membrane transfer, the membranes were blocked with 5% skimmed milk, followed by incubation with phosphorylated antibodies: p-IKK-β, p-IкB-α, p-NF-кB (p-p65), and GAPDH (Santa Cruz), with shaking overnight at 4 °C. After TBST washing, the membranes were incubated with HRP-labeled species-matched secondary antibody (HuaAn Biologicals, Hangzhou, China) for 60 min at room temperature. The density of specific proteins was quantified using the ChemiDoc MP imaging system (Bio-Rad, Hercules, CA, USA).

Data set [3] can be described thus: Ex vivo stability in plasma (HPLC). As to conditions: rat plasma, peptide 10 µg/mL, 37 °C, linear regression of log concentration-time, mean ± SD of 3 biological replicates.
Protocol: (§1) The above peptide solutions were incubated at 37 °C for varying lengths of time and then immediately transferred to pre-cooled test tubes containing 1 mL of acidic acetone (hydrochloric acid/acetone/H2O, v/v/v 1:40:5) to terminate the reaction. The concentration of the hydrochloric acid solution before dilution is 50 mM. The precipitate was subsequently separated by centrifugation at 20,000× g for 20 min at 4 °C. The obtained precipitates were dried in vacuo and then dissolved in 0.5 mL of 1 M acetic acid. Peptide analysis was conducted according to the protocol for the study of TP5 using HPLC [2]. Peptide half-lives were obtained by fitting a linear regression model based on logarithmic concentration-time.
The target in data set [4] is Toll-like receptor 4/myeloid differentiation factor 2 (TLR4/MD-2) complex (UniProt Q9QUK6 26-835; Q9JHF9 19-160, The source, species and construct of the SPR protein are not stated. Mouse is inferred from the docking receptor (PDB 2Z64) and the mouse models. Limits by convention: TLR4 extracellular domain and ma). As to the kind of experiment: SPR; Biacore X100, CM5 chip, amine coupling; running buffer PBS with 0.05% Tween 20, 30 μL/min; peptide gradient 0, 1.25, 2.5, 5 and 10 mM as printed; 1:1 binding model; legend and results: TLR4/MD-2 immobilised and DTP flowed over (the methods say DTP was immobilised). Particulars: both partners purified. On the technique in general: Surface plasmon resonance follows binding to a sensor surface in real time, without labels.
Toll-like receptor 4/myeloid differentiation factor 2 (TLR4/MD-2) complex, sequence (Q9QUK6 26-835, chain 1 of 2): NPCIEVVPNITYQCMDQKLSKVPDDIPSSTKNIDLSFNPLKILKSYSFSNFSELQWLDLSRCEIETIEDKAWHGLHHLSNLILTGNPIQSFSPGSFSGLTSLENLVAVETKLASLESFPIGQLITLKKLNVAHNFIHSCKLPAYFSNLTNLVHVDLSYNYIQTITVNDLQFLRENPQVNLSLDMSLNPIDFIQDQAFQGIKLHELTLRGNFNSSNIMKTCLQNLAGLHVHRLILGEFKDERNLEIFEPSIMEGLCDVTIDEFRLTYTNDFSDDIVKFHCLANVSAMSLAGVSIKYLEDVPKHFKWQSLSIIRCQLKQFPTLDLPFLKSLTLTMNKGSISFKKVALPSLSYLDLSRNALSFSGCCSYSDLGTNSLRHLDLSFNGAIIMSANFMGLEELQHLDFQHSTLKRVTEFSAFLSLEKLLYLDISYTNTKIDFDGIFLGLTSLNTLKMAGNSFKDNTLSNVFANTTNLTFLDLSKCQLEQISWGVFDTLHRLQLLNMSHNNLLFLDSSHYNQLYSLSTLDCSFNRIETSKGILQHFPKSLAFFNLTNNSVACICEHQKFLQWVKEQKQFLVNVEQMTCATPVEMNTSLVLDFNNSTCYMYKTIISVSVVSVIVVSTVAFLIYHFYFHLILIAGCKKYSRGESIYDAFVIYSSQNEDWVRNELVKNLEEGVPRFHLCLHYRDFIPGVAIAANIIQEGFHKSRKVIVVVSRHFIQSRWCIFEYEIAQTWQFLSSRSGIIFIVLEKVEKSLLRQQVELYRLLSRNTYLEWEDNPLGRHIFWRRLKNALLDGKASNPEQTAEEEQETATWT
Toll-like receptor 4/myeloid differentiation factor 2 (TLR4/MD-2) complex, sequence (Q9JHF9 19-160, chain 2 of 2): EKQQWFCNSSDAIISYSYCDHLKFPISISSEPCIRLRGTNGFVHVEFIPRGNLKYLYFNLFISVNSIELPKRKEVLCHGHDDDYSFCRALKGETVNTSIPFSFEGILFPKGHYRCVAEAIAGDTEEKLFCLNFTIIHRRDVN

Setting [5] is: ELISA, peptide 10 mg/kg i.p. pretreatment, LPS, 16 h.
Where [6] appears, read: peptide 10 mg/kg i.p. once daily pretreatment, then LPS i.p., 16 h after LPS.
Where [7] appears, read: peptide 10 mg/kg i.p. pretreatment, LPS, 16 h.

Protocol for RAW264.7 macrophages: RAW 264.7 cells were maintained in DMEM medium containing 10% (v/v) fetal bovine serum and 1% (v/v) penicillin-streptomycin at 37 °C, 5% CO2.
RAW264.7 cells (3 × 10^4 cells/mL) were plated in 96-well plates in 100 μL DMEM overnight and then cultured in fresh medium containing a 2-fold concentration of peptide for another 24 h. Add 10 μL of CCK-8 solution to each well and incubate for 4 h away from light. Then, the optical density at 450 nm was measured using a microplate reader. Cell viability was determined byCell viability (%) = (OD450 (sample)/OD450 (control)) × 100%(1) where OD450 (sample) is the absorbance at 450 nm of the cells with peptides treated and OD450 (control) is the absorbance at 450 nm of the cells without peptides treated.
Protocol for in vitro: as §1

Regarding “NWYVKKCLNDVGICKKKCKPEEMHVKNGWAMCGKQRDCCVPAD (cysteines drawn unpaired) [DEFB126]”, the half-life at 10 µg/mL in “in vitro” worked out at 5.41 ± 0.885 h. For the same molecule, the cell survival rate result with RAW264.7 macrophages is listed as “higher than 80%”.
In the case of “NWYVKKCLNDVGICKKKCKPEEMHVKNGWAMCGKQRDCCRKDVY (cysteines drawn unpaired) [DTP]”, in the data set with LPS-induced sepsis model (setting [5]), the “serum IL-1β level” value is on record as “significantly decreased”, the “serum IL-6 level” value is recorded as “significantly decreased” and the “serum TNF-α level” value was “significantly decreased”. Moreover, the liver injury score entry in the data set on LPS-induced sepsis model (H&E, 0- to 3-point scale, peptide 10 mg/kg i.p. pretreatment, LPS, 16 h) was “significantly lower liver injury score than the LPS-treated, TP5-pretreated, and DEFB126-pretreated groups”. Besides, in the data set on LPS-induced sepsis model (setting [6]), the “serum ALT level” value is “markedly lower than those in the TP5-pretreated group and DEFB126-pretreated group”; the “serum AST level” value is “markedly lower than those in the TP5-pretreated group and DEFB126-pretreated group”. Moreover, in the data set with LPS-induced sepsis model (setting [7]), the “liver CAT activity” value was “significantly reversed these effects”, the “liver GSH-Px activity” value is listed as “significantly reversed these effects” and the “liver SOD activity” value was “significantly reversed these effects”. The “50% neutralization rate value” in data set [1] is given as “approximately 11.58 ± 2.07 μg/mL”. Besides, the “LPS-induced ROS generation” value in the data set with RAW264.7 cells is “remarkably attenuated”. Moreover, the “LPS-induced phosphorylation of IKK-β, IκB-α and NF-κB” value in data set [2] is listed as “significantly inhibited”. In addition, in the data set on RAW264.7 macrophages, the cell survival rate entry is reported as “higher than 80%”. Moreover, the “cytotoxicity compared with parental peptides” value in the data set with RAW264.7 macrophages (RAW264.7, 2-fold series of concentrations, CCK-8) is “significantly lower than DEFB126 and TP5”. In data set [3], the t1/2 in plasma was 349 ± 69.17 ^a min.

B1: hybrid peptide DEFB126 (1-39)-TP5 (peptide)
peptide: NWYVKKCLNDVGICKKKCKPEEMHVKNGWAMCGKQRDCCRKDVY
notes: DEFB126 (1-39): residues 21-59 of human β-defensin 126 (111 amino acids); thymopentin (TP5), the core active fragment of thymopoietin, full-length TP5; whether disulfide bonds form is left open by the authors; also called DTP; DTP peptide; source: synthetic peptide (KangLong Biochemistry, 95% purity)
For B1, the Kd in data set [4] was determined as 2.3 µM.

One may read the half-life as the time in which the quantity being followed falls by half. Low readings indicate rapid decline, high ones slow decline. Broadly, the Kd is the equilibrium constant for the complex coming apart.
